Read-outs that look alike come from different tables or passages of the source.

The record followed here is patent publication US9169241B2, “Quinolinyloxyphenylsulfonamides” (Max-Planck-Gesellschaft Zur Forderung der Wissenschaften …, priority 2009, dated 2015).

Type in all cases: cell-based
One assay deals with tumor cell. Description: Matrigel outgrowth assay/branching assay (Table Va). The gist of the method: (§1)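 Cells (5000/well) were seeded onto polymerized 3 mg/ml Matrigel with compound at 3.125, 1.56 or 0.78 μM, or DMSO. Imaging by inverted microscopy at 48, 72 and 96 h scored invasive branching. Only concentrations giving total branching inhibition counted as positive.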
The next assay relates to U138. Kind of assay: Matrigel outgrowth assay/branching assay. Particulars: IC100, U138; Table Vb. The gist of the method: as §1
Assay [1] concerns the target T1, wild type AXL (wtAXL) receptor tyrosine kinase (Homo sapiens, UniProt P30530).
T1 construct: WtAXL cDNA was cloned into vector pLXSN(ESK) and transfected into Phoenix E packaging cells; expressed in transfected cells; host or cells: NIH3T3 N7 (mouse fibroblasts), retrovirally infected, clone 22
T1 sequence (P30530 26-894): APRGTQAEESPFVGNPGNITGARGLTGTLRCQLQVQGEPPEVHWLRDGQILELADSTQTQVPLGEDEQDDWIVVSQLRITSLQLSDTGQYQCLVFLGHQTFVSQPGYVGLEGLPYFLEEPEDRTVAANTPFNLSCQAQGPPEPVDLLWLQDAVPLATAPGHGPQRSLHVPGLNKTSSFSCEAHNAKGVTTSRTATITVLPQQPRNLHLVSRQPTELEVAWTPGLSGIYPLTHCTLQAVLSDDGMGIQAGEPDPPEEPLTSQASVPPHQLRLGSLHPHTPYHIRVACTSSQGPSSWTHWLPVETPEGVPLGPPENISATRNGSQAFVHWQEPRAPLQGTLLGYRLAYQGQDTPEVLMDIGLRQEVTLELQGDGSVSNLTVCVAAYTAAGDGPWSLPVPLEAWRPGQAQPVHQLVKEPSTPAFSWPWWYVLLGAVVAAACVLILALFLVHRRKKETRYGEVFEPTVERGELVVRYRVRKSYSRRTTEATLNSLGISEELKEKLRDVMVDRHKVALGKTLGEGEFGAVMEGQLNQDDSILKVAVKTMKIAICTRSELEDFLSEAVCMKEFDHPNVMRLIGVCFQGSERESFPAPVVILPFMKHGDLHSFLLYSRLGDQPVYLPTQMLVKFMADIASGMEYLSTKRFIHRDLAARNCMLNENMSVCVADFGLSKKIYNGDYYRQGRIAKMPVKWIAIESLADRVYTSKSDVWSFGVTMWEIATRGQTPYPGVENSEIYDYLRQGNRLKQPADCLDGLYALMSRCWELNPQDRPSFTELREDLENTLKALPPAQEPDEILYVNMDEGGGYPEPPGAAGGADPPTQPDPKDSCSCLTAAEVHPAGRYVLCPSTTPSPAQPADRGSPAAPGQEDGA
Kind of assay: NIH-3T3-AXL cellular kinase assay (pY-AXL-ELISA). Particulars: NIH-3T3-AXL (clone 22) cells, serum depleted, compounds 1 h; Table Ia. The gist of the method:
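NIH3T3 cells stably expressing human wild-type AXL (retroviral, puromycin-selected clones) were treated with serial compound dilutions for 1 h and lysed. AXL tyrosine phosphorylation was measured by ELISA on the lysates: biotinylated 4G10 anti-phosphotyrosine, streptavidin-alkaline phosphatase, AttoPhos fluorescence at 430/560 nm after 90 min.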
For orientation: An ELISA detects its analyte on a solid surface through an enzyme-linked reagent.

[2] abbreviates: Homo sapiens, C8161 cells, read-out: Total branching inhibition in Matrigel C8161.
Setting [3] is: Homo sapiens, Hs-578T, Hs578T cells, read-out: Total branching inhibition in Matrigel Hs578T.
Setting [4] is: U118 cells, read-out: Total branching inhibition in Matrigel U118.
Setting [5] is: U138 cells, read-out: Total branching inhibition in Matrigel U138.

In the case of `COc1cc2c(Oc3ccc(NS(=O)(=O)c4cccc(Oc5ccccc5)c4)cc3F)ccnc2cc1OCCCN1CCN(C)CC1` [Example 14, N-(3-Fluoro-4-{6-methoxy-7-[3-(4-methyl-piperazin-1-yl)-propoxy]-quinolin-4-yloxy}-phenyl)-3-phenoxy-benzenesulfonamide], the IC50 was 5 to 50 µM in the assay on tumor cell (setting [2]), 5 to 50 µM in the assay on tumor cell (setting [3]), at most 5 µM in the assay with tumor cell (setting [4]) and 5 to 50 µM in the assay on tumor cell (setting [5]). Also, in the assay on U138, the “Total branching inhibition in Matrigel U138” value is on record as “++ (IC100≦12.5 μM)”.
On to `COc1cc2c(Oc3ccc(NS(=O)(=O)c4cc(Cl)cc(Cl)c4OC)cc3F)ccnc2cc1OCCCN1CCCCC1` [Example 34, 3,5-Dichloro-N-{3-fluoro-4-[6-methoxy-7-(3-piperidin-1-yl-propoxy)-quinolin-4-yloxy]-phenyl}-2-methoxy-benzenesulfonamide], for which the IC50 in assay [1] was below 0.5 µM; with tumor cell (setting [2]), at most 5 µM; in the assay with tumor cell (setting [3]), at most 5 µM; in the assay with tumor cell (setting [4]) it was at most 5 µM; with tumor cell (setting [5]), 5 to 50 µM.
Regarding `COc1cc2c(Oc3ccc(NS(=O)(=O)c4cc(Cl)cc(Cl)c4OC)cc3F)ccnc2cc1OCCCN1CCN(C)CC1` [Example 35, 3,5-Dichloro-N-(3-fluoro-4-{6-methoxy-7-[3-(4-methyl-piperazin-1-yl)-propoxy]-quinolin-4-yloxy}-phenyl)-2-methoxy-benzenesulfonamide], the IC50 in assay [1] was below 0.5 µM; in the assay on tumor cell (setting [2]), at most 5 µM; with tumor cell (setting [3]) it was at most 5 µM; in the assay on tumor cell (setting [4]), at most 5 µM; in the assay with tumor cell (setting [5]), 5 to 50 µM.
On to `COc1cc2c(Oc3ccc(NS(=O)(=O)c4ccccc4Cl)cc3F)ccnc2cc1OCCCN1CCCC(C)C1` (stereo not drawn) [Example 38, 2-Chloro-N-(3-fluoro-4-{6-methoxy-7-[3-(3-methyl-piperidin-1-yl)-propoxy]-quinolin-4-yloxy}-phenyl)-benzenesulfonamide], for which the IC50 in assay [1] is below 0.5 µM; in the assay on tumor cell (setting [2]) it was at most 5 µM; with tumor cell (setting [3]), at most 5 µM; with tumor cell (setting [4]) it was at most 5 µM; in the assay with tumor cell (setting [5]), 5 to 50 µM.
Consider `COc1cc2c(Oc3ccc(NS(=O)(=O)c4ccc(F)cc4F)cc3F)ccnc2cc1OCCCN1CCCC(C)C1` (stereo not drawn) [Example 47, 2,4-Difluoro-N-(3-fluoro-4-{6-methoxy-7-[3-(3-methyl-piperidin-1-yl)-propoxy]-quinolin-4-yloxy}-phenyl)-benzenesulfonamide], for which the IC50 in assay [1] is below 0.5 µM; in the assay on tumor cell (setting [2]), at most 5 µM; in the assay with tumor cell (setting [3]), at most 5 µM; in the assay with tumor cell (setting [4]), at most 5 µM; with tumor cell (setting [5]), 5 to 50 µM.
Turning to `COc1cc2c(Oc3ccc(NS(=O)(=O)c4cc(C)ccc4F)cc3F)ccnc2cc1OCCCN1CCCC(C)C1` (stereo not drawn) [Example 55], the IC50 is below 0.5 µM in assay [1]; at most 5 µM with tumor cell (setting [2]); at most 5 µM in the assay on tumor cell (setting [3]); at most 5 µM with tumor cell (setting [4]); 5 to 50 µM in the assay on tumor cell (setting [5]).
Take `COc1cc2c(Oc3ccc(NS(=O)(=O)c4ccc(C)c(F)c4)cc3F)ccnc2cc1OCCCN1CCCC(C)C1` (stereo not drawn) [Example 56, 3-Fluoro-N-(3-fluoro-4-{6-methoxy-7-[3-(3-methyl-piperidin-1-yl)-propoxy]-quinolin-4-yloxy}-phenyl)-4-methyl-benzenesulfonamide]: the IC50 is below 0.5 µM in assay [1]; at most 5 µM in the assay with tumor cell (setting [2]); 5 to 50 µM with tumor cell (setting [3]); at most 5 µM with tumor cell (setting [4]); 5 to 50 µM in the assay with tumor cell (setting [5]).
On to `COc1cc2c(Oc3ccc(NS(=O)(=O)c4ccc(F)c(Cl)c4)cc3F)ccnc2cc1OCCCN1CCCC(C)C1` (stereo not drawn) [Example 57, 3-Chloro-4-fluoro-N-(3-fluoro-4-{6-methoxy-7-[3-(3-methyl-piperidin-1-yl)-propoxy]-quinolin-4-yloxy}-phenyl)-benzenesulfonamide], for which the IC50 in assay [1] is below 0.5 µM; in the assay with tumor cell (setting [2]), 5 to 50 µM; in the assay with tumor cell (setting [3]) it was at most 5 µM; in the assay with tumor cell (setting [4]), at most 5 µM; with tumor cell (setting [5]), at most 5 µM.
Turning to `COc1cc2c(Oc3ccc(NS(=O)(=O)c4cccc5ccccc45)cc3F)ccnc2cc1OCCCN1CCCC(C)C1` (stereo not drawn) [Example 58, Naphthalene-1-sulfonic acid (3-fluoro-4-{6-methoxy-7-[3-(3-methyl-piperidin-1-yl)-propoxy]-quinolin-4-yloxy}-phenyl)-amide], the IC50 in assay [1] is below 0.5 µM; with tumor cell (setting [2]), at most 5 µM; in the assay with tumor cell (setting [3]), at most 5 µM; in the assay with tumor cell (setting [4]), at most 5 µM; with tumor cell (setting [5]), 5 to 50 µM.
For `COc1cc2c(Oc3ccc(NS(=O)(=O)c4cccc(Oc5ccccc5)c4)cc3F)ccnc2cc1OCCCN1CCCC(C)C1` (stereo not drawn) [Example 59, N-(3-Fluoro-4-{6-methoxy-7-[3-(3-methyl-piperidin-1-yl)-propoxy]-quinolin-4-yloxy}-phenyl)-3-phenoxy-benzenesulfonamide], the IC50 in assay [1] is below 0.5 µM; in the assay on tumor cell (setting [2]), at most 5 µM; in the assay on tumor cell (setting [3]), at most 5 µM; with tumor cell (setting [4]), 5 to 50 µM; in the assay on tumor cell (setting [5]), at most 5 µM.
`COc1cc2c(Oc3ccc(NS(=O)(=O)c4ccc(Cl)s4)cc3F)ccnc2cc1OCCCN1CCCC(C)C1` (stereo not drawn) [Example 63, 5-Chloro-thiophene-2-sulfonic acid (3-fluoro-4-{6-methoxy-7-[3-(3-methyl-piperidin-1-yl)-propoxy]-quinolin-4-yloxy}-phenyl)-amide]: the IC50 in assay [1] was below 0.5 µM; in the assay on tumor cell (setting [2]) it was 5 to 50 µM; in the assay with tumor cell (setting [3]) it was at most 5 µM; in the assay with tumor cell (setting [4]), at most 5 µM; in the assay on tumor cell (setting [5]) it was at most 5 µM.
Consider `COc1cc2c(Oc3ccc(NS(=O)(=O)c4c(F)cccc4F)cc3F)ccnc2cc1OCCCN1CCOCC1` [Example 77, 2,6-Difluoro-N-{3-fluoro-4-[6-methoxy-7-(3-morpholin-4-yl-propoxy)-quinolin-4-yloxy]-phenyl}-benzenesulfonamide], for which the IC50 in assay [1] was below 0.5 µM; with tumor cell (setting [2]) it was 5 to 50 µM; with tumor cell (setting [3]), at most 5 µM; in the assay on tumor cell (setting [4]), at most 5 µM; in the assay on tumor cell (setting [5]), 5 to 50 µM.
Regarding `COc1cc2c(Oc3ccc(NS(=O)(=O)c4ccccc4F)cc3F)ccnc2cc1OCCN1CCOCC1` [Example 81, 2-Fluoro-N-{3-fluoro-4-[6-methoxy-7-(2-morpholin-4-yl-ethoxy)-quinolin-4-yloxy]-phenyl}-benzenesulfonamide], the IC50 is below 0.5 µM in assay [1]; at most 5 µM with tumor cell (setting [2]); at most 5 µM with tumor cell (setting [3]); 5 to 50 µM in the assay with tumor cell (setting [4]); 5 to 50 µM in the assay with tumor cell (setting [5]).
Take `COc1cc2c(Oc3ccc(NS(=O)(=O)c4c(F)cccc4F)cc3F)ccnc2cc1OCCN1CCOCC1` [Example 82, 2,6-Difluoro-N-{3-fluoro-4-[6-methoxy-7-(2-morpholin-4-yl-ethoxy)-quinolin-4-yloxy]-phenyl}-benzenesulfonamide]: the IC50 in assay [1] is below 0.5 µM; in the assay on tumor cell (setting [2]), 5 to 50 µM; with tumor cell (setting [3]), at most 5 µM; in the assay on tumor cell (setting [4]), at most 5 µM; in the assay on tumor cell (setting [5]), 5 to 50 µM.
Turning to `COc1cc2c(Oc3ccc(NS(=O)(=O)c4ccccc4C(F)(F)F)cc3Cl)ccnc2cc1OCCCN1CCN(C)CC1` [Example 87, N-(3-Chloro-4-{6-methoxy-7-[3-(4-methyl-piperazin-1-yl)-propoxy]-quinolin-4-yloxy}-phenyl)-2-trifluoromethyl-benzenesulfonamide], the IC50 in assay [1] was below 0.5 µM; with tumor cell (setting [2]), at most 5 µM; in the assay with tumor cell (setting [3]), at most 5 µM; in the assay on tumor cell (setting [4]), at most 5 µM; in the assay with tumor cell (setting [5]), 5 to 50 µM.
